In the case of `CN(C(CCn1c(=O)cc(Cl)[nH]c1=O)C(=O)NO)S(=O)(=O)c1ccc(Oc2cccc(Cl)c2)cc1` (stereo not given), the melting point is 168 to 170 °C.

`Cc1ccc(N2CCN(c3ccc(C(C)(C)O)nc3-c3ccc(C(C)C)cc3)CC2)cc1` came in with a melting point of 130 to 133 °C.

For the compound `CC1C(=O)N(c2ccc3c(c2)OCO3)C(=S)N1c1ccc(Oc2ccccc2)cc1` (stereo not given), the melting point was 185 °C.

Turning to `NC(=O)c1sc2nccc(N3CCCN(c4ccccc4Cl)CC3)c2c1N`, the melting point is 206 to 210 °C.

Take `O=C(Nc1ccc(N2CCN(C(=O)Nc3ccc(OCCO)cc3C(F)(F)F)CC2)cc1)Nc1ccccc1OC(F)F`: the melting point was 118 to 120 °C.

As to `COc1ccc(N2CCN(Cc3n[nH]c4ccccc34)CC2)nc1`, the melting point lay in the range of 132 to 134 °C.

Turning to `CCCNC(=O)C(C)(C)n1cc(C)c(-c2ccccc2)n1`, the melting point lay within 47 to 50 °C.

The compound `Cn1cnc2c1c(=O)n(CCCCC(=O)CBr)c(=O)n2C` gave a melting point of 125 to 135 °C.

Consider `CCOC(=O)c1c(C2CC2)nn(CC)c1Cc1ccc(-c2ccccc2S(N)(=O)=O)cc1`, for which the melting point was in the range of 54 to 58 °C.

As to `CCNc1cccc(-c2ccnc3c(C(=O)c4cccs4)cnn23)c1`, the melting point lay in the range of 154 to 155 °C.

Compound `C=C1CC2(C)C(CCC2(C)O)C2CCC3=CC(=O)CCC3(C)C12` (stereo not given) returned a melting point of 155 to 157 °C.

As for `O=C(O)c1nc2c(=O)[nH]c3cc(C(F)(F)F)ccc3n2c1CNCc1ccccc1`, the melting point came out at 248 °C.

As to `CC(C)Oc1ccc(CCCOc2nn(Cc3ccccc3)cc2CC(=O)O)c(Oc2ncc(C(F)(F)F)cc2Cl)c1`, the melting point lay in the range of 115 to 116 °C.

As for `N#CSc1nc(I)ncc1Br`, the melting point fell in the range of 199 to 202 °C.

`O=C(c1ccc(C(F)(F)F)cc1)c1cccc(O)c1`: the melting point stood at 130 °C.

On to `CCCCC(Cc1ccc(OCCNC(=O)c2ccc(-c3cc(C)c(OCOC)c(C)c3)cc2)cc1)C(=O)OCC` (stereo not given), for which the melting point lay in the range of 70 to 71 °C.

`CN(C(=O)CN(C(=O)CNC(=O)Nc1cccc(S(N)(=O)=O)c1)c1ccccc1)c1ccccc1` yielded a melting point of 175 °C.

Turning to `CC(Oc1ncn(-c2cccc(Br)c2)n1)C(=O)N1CCCC1` (stereo not given), the melting point is 111 to 113 °C.

Take `CCOC(=O)c1cnn(-c2c(Cl)cc(C(F)(F)F)cc2Cl)c1C`: the melting point lay in the range of 61 to 62 °C.

Turning to `CC(=O)c1ccc(NC(=O)c2ccc(-c3ccccc3)cc2)cc1`, the melting point fell in the range of 283 to 285 °C.

Take `O=c1[nH]c(=O)c2cc(C(c3ccccc3)n3cncn3)ccc2[nH]1` (stereo not given): the melting point came out at 281 °C.

In turn, `COc1ccccc1N1CCN(CCCCOc2ccc(-c3cn4ccsc4n3)cc2)CC1` showed a melting point of 128 to 130 °C.

The compound `COC(=O)C=Cc1ccc(OCC(C)NCC(O)c2cccc(Cl)c2)cc1` (stereo not given) registered a melting point of 97 to 103 °C.

Turning to `CSC1=Nc2c(C)ccnc2N(C2CC2)c2ncccc21`, the melting point fell in the range of 173 to 177 °C.

On to `CCOc1ccccc1-c1nc2c(C)cccc2c(=O)[nH]1`, for which the melting point is 177 to 180 °C.

As to `N#Cc1cc(C#N)cc(Oc2nccc(Oc3cc(Cl)cc(Cl)c3)n2)c1`, the melting point is 156 °C.

Regarding `COc1ccc(C)c(Nc2c(C#N)cnc3cc(Cl)c([N+](=O)[O-])cc23)c1`, the melting point was in the range of 180 to 182 °C.

`CON=Cc1ccc2c(c1)ncn2-c1cccc(-c2cccs2)c1`: the melting point was 184 to 185 °C.

For the compound `CCCCCSc1c[nH]nc1C1=CCCN(C)C1`, the melting point lay in the range of 100 to 101 °C.

`O=C1Nc2cccc(Cl)c2C12COc1cc3c(cc12)CCO3` (stereo not given) came in with a melting point of over 200 °C.

Regarding `O=C(O)[C@H](CCc1ccccc1)NS(=O)(=O)c1ccc2c(c1)sc1ccccc12`, the melting point was 210 to 212 °C.

With `Cc1cccc(-n2c(=O)[nH]c3ccc(F)cc3c2=O)c1`, the melting point lay in the range of 278 to 279 °C.

Turning to `COC(=O)C1=C(C)NC2=C(C(=O)CN(Cc3ccccc3)C2)C1c1ccccc1C` (stereo not given), the melting point lay within 201 to 204 °C.

With `CCNC(=O)C1CCN(C(=O)c2cc(-c3ccccc3)c(=O)n3c2-c2sccc2CC3)CC1`, the melting point fell in the range of 134 to 135 °C.

In turn, `COc1ccc2c(c1)C(=O)N(c1ccc3c(c1)N(C)CCN3C)C2` showed a melting point of 137 to 142 °C.

The compound `ON=C1c2ccccc2CCC1Br` (stereo not given) displayed a melting point of 125 to 131 °C.

With `CC(C)N1CCC(CNc2ccc(NS(C)(=O)=O)cc2C(=O)Nc2ccc(Cl)cn2)CC1`, the melting point lay within 204 to 205 °C.

Compound `COc1cc(C(=O)Oc2ccc3c(OC(=O)c4ccc(O)c(OC)c4)c4cc(OC(=O)c5ccc(O)c(OC)c5)ccc4cc3c2)ccc1O` showed a melting point of 206 °C.

For the compound `Cn1c(=O)c(-c2c(Cl)cccc2Cl)cc2cnc(Nc3cccc(C(=O)O)c3)nc21`, the melting point is over 300 °C.

In the case of `CCC12CCC(=O)C=C1c1c(cc(OCC(=O)OCC3COC(C)(C)O3)c(Cl)c1Cl)C2` (stereo not given), the melting point is 143 to 145 °C.

`CC(C)(NC(=O)C1=C(C(=O)Nc2cc(OC3CCCC3)c(Cl)cc2F)CCCC1)c1cccc(F)c1`: the melting point is 231 to 234 °C.

The compound `CC1(C)Cc2c(c(N3CCCC3)nc3sc4c(NCc5ccncc5)ncnc4c23)CO1` showed a melting point of 228 to 229 °C.

`Cc1[nH]c2ccc(Cl)cc2c1C(C(=O)C1(Cl)C=CC=CC1)c1cc(=O)n(C2CCCCC2)[nH]1` (stereo not given) displayed a melting point of 121 °C.

Turning to `CC(C#N)c1nc(O)n[nH]1` (stereo not given), the melting point was 182 to 184 °C.

As for `O=S(=O)(N[C@H]1CC[C@H](CCN2CCN(c3nccc4c3CCO4)CC2)CC1)c1ccc(F)cc1`, the melting point came to 221 °C.

The compound `CSc1nc(P(=O)(C2CCCCC2)C2CCCCC2)cc(P(=O)(C2CCCCC2)C2CCCCC2)n1` showed a melting point of 197 to 198 °C.

`N#CCc1ccc(NC(=O)C(F)(F)C(F)(F)C(F)(F)C(F)(F)F)cc1` registered a melting point of 126 to 128 °C.

Compound `COc1ccc(Oc2c(OC)cc(N)c3nccc(C)c23)cc1` gave a melting point of 185 to 187 °C.

With `Cc1c(-c2cccc(C(F)(F)F)c2)oc2c(-c3ccc(F)cc3)c(-c3ccc(S(C)(=O)=O)cc3)nn12`, the melting point fell in the range of 194 to 195 °C.

Compound `COC(=S)c1[nH]c2ccc(Cl)cc2c1-c1ccccc1` had a melting point of 193 to 196 °C.

`CNc1cc(F)ccc1C(=O)Cc1nnn[nH]1` showed a melting point of 214 to 216 °C.

`O=C(Nc1cccc2ccccc12)N(CCCN1CCC(Cc2ccccc2)CC1)c1ccccc1` showed a melting point of 124 to 127 °C.

Take `CC(=O)Nc1nc(-c2ccc(SCOC(C)=O)cc2)cs1`: the melting point fell in the range of 144 to 145 °C.

For the compound `COc1cccc2c1OC(CO)CC2` (stereo not given), the melting point is 57 to 58 °C.

Take `COc1ccc(-n2nnc(-c3ccc(Cl)c(Cl)c3)c2N)cc1`: the melting point was 190 to 191 °C.

In turn, `CC(C)Cn1c(CCCCNC(=O)Nc2ccccc2)nc2c(N)nc3c(c21)CCCC3` displayed a melting point of 197 to 199 °C.

`O=C(O)COc1ccc(OCc2ccccc2)cc1OCc1ccccc1`: the melting point was 72 °C.

For the compound `CN(C)Cc1cnn(C)c1-c1ccc(Cl)cc1C(O)c1ccccc1F` (stereo not given), the melting point lay in the range of 125 to 127 °C.

Turning to `CC1(C)OC(=O)Nc2ccc(Br)cc21`, the melting point lay in the range of 199 to 200 °C.

Turning to `CC(=O)Nc1ccc(C(C)(C)C)cc1[N+](=O)[O-]`, the melting point lay within 109 to 110 °C.

(Values after a melting point compilation (Tetko et al.; mined from patent text by program, amines drawn as free bases though some values may be those of a salt).)
